From patent US20150018403A1, “FLUORENE-AMIDE COMPOUNDS AND PHARMACEUTICAL USE THEREOF” (JAPAN TOBACCO INC., priority 2013, published 2015)

Experiments:
human PDHK1 (hPDHK1) = molecular target: T1, human PDHK1 (hPDHK1) (Homo sapiens, UniProt Q15118); assay: Inhibitory action of PDHK1 activity in vitro (residual PDH activity after kinase reaction); type: biochemical; details: PDH/hPDHK1 complex, 45 min kinase reaction at room temperature
T1 construct: made in house; host or cells: Escherichia coli BL21(DE3), pET17b vector
Experimental: The inhibitory action of PDHK activity was assessed indirectly by measuring the residual PDH activity after kinase reaction in the presence of a test compound.
In the case of human PDHK1 (hPDHK1, Genbank Accession No. L42450.1), a 1.3 kbp fragment encoding this protein was isolated from human liver cDNA by polymerase chain reaction (PCR). Modified hPDHK1 cDNA wherein FLAG-Tag sequence was added to the N terminus was prepared by PCR and cloned into a vector (pET17b-Novagen). The recombinant construct was transformed into Escherichia coli (DH5α-TOYOBO). The recombinant clones were identified, and plasmid DNA was isolated and subjected to the DNA sequence analysis. One clone which had the expected nucleic acid sequence was selected for expression work. […]
Then, 10 μL of substrates (5 mmol/L sodium pyruvate, 5 mmol/L Coenzyme A, 12 mmol/L NAD, 5 mmol/L thiamin pyrophosphate, diluted with buffer) were added. The mixture was incubated at room temperature for 90 min, and the residual PDH activity was measured.
2.5 The absorbance at 340 nm before and after PDH reaction was measured using a microplate reader to detect NADH produced by the PDH reaction. The hPDHK1 inhibition rate (%) of the test compound was calculated from the formula [{(PDH activity of the test compound−PDH activity of control)/PDH activity of blank−PDH activity of control)}×100].

[1] = Effect of repeated administration on HbA1c in ZDF rats; type: in vivo, Zucker Diabetic Fatty rats; details: 1 mg/kg oral once daily, day 27 of administration, vehicle 4.4 ± 0.4, p < 0.05 vs. vehicle
Experimental: Zucker Diabetic Fatty rats (male, 7-week-old, CHARLES RIVER LABORATORIES JAPAN INC.), an animal model for type 2 diabetes, given a purified diet (5.9% fat diet, Oriental Yeast Co., Ltd.) were allocated to the vehicle group and the test compound groups so that no bias occurred in the plasma glucose and insulin levels, HbA1c levels and body weights. Repeated oral doses of the test compound (1 mg/kg/5 mL) were administered to the rats once daily at 3 hr before the dark period. A 0.5% aqueous methylcellulose solution was orally administered in the same manner to the rats of the vehicle group. On day 27 of administration, blood samples were collected from the tail vein and HbA1c level (%) was measured. Statistical analysis was performed by Dunnett's test. Values of p<0.05 were considered statistically significant.

T1 sequence (Q15118 29-436): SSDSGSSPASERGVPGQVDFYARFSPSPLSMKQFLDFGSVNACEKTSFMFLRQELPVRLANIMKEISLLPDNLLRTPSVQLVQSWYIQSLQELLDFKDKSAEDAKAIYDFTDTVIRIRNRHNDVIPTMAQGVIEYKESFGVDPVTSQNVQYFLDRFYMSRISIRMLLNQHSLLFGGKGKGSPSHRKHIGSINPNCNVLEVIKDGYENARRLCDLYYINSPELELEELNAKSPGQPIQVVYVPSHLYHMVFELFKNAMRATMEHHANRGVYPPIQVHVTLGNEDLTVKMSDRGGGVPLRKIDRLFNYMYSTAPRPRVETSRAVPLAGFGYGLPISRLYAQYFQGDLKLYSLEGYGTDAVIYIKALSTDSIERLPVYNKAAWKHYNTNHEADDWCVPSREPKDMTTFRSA

Q: Which results are given for C[C@H](O)COc1cc(-c2cnn(C(C)(C)C(N)=O)c2)c2c(c1)[C@@](O)(C(F)(F)F)c1ccccc1-2 [compound (2), 2-(4-{(9R)-9-hydroxy-2-[(2S)-2-hydroxypropoxy]-9-(trifluoromethyl)-9H-fluoren-4-yl}-1H-pyrazol-1-yl)-2-methylpropanamide]?
A: IC50 (human PDHK1 (hPDHK1)): 5.1 nM; HbA1c (%) [1]: 3.9 ± 0.5 %
